From US12209087B2, “AKT1 modulators” (Alterome Therapeutics, Inc., priority 2022, dated 2025)

Each molecule was assayed against T1, full length AKT E17K (Homo sapiens, UniProt P31749, E17K) (assay: NanoBRET Target Engagement (TE) Assay). Settings: competitive displacement of tracer in cells, read-out: AKT1 E17K IC50.
T1 construct: host or cells: HEK-293 (ATCC CRL-1573)
T1 sequence (P31749 whole entry E17K): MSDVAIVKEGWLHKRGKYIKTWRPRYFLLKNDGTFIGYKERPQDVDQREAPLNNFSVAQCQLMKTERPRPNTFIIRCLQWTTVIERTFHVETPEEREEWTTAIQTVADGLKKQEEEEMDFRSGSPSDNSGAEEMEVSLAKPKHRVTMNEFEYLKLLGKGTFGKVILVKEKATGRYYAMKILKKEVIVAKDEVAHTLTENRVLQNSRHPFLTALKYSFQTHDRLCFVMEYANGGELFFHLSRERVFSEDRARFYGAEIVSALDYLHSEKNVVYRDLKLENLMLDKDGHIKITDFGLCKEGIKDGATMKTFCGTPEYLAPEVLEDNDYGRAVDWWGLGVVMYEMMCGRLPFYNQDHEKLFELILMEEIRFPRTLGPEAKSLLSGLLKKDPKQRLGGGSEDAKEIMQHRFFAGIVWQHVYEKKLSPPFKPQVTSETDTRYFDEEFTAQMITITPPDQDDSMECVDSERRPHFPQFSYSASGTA
Format: cell-based
Method in brief: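 Compound and tracer incubated 2 h before luminescence at donor 450 nm and acceptor 600 nm, with extracellular signal inhibited. EC50 by sigmoidal variable-slope regression.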
In the case of `Cn1ccc(-c2ccc3nc(-c4cccnc4N)n(-c4ccc(CN5CCN(c6ccnc(C#N)n6)CC5)cc4)c3n2)cc1=O` [Example 349, 4-(4-(4-(2-(2-Aminopyridin-3-yl)-5-(1-methyl-2-oxo-1,2-dihydropyridin-4-yl)-3H-imidazo[4,5-b]pyridin-3-yl)benzyl)piperazin-1-yl)pyrimidine-2-carbonitrile], the IC50 is reported as 0.015 to 0.06 µM.
`N#Cc1nccc(NC2CCN(Cc3ccc(-n4c(-c5cccnc5N)nc5ccc(-c6ccc(F)cn6)nc54)cc3)CC2)n1` [Example 456, 4-((1-(4-(2-(2-Aminopyridin-3-yl)-5-(5-fluoropyridin-2-yl)-3H-imidazo[4,5-b]pyridin-3-yl)benzyl)piperidin-4-yl)amino)pyrimidine-2-carbonitrile] showed an IC50 of under 0.015 µM.
`N#Cc1nccc(NC2CCN(Cc3ccc(-n4c(-c5cccnc5N)nc5c(O)ncnc54)cc3)CC2)n1` [Example 494, 4-((1-(4-(8-(2-aminopyridin-3-yl)-6-hydroxy-9H-purin-9-yl)benzyl)piperidin-4-yl)amino)pyrimidine-2-carbonitrile] showed an IC50 of 0.6 to 10 µM.
`N#Cc1nccc(NC2CCN(Cc3ccc(-n4c(-c5cccnc5N)nc5ccc(-c6ccc(OC7CC7)nc6)nc54)cc3)CC2)n1` [Example 641, 4-((1-(4-(2-(2-Aminopyridin-3-yl)-5-(6-cyclopropoxypyridin-3-yl)-3H-imidazo[4,5-b]pyridin-3-yl)benzyl)piperidin-4-yl)amino)pyrimidine-2-carbonitrile] was tested, and the IC50 was under 0.015 µM.
`N#Cc1nccc(NC2CCN(Cc3ccc(-n4c(-c5cccnc5N)nc5ccc(-c6ncccc6F)nc54)cc3)CC2)n1` [Example 570, 4-((1-(4-(2-(2-Aminopyridin-3-yl)-5-(3-fluoropyridin-2-yl)-3H-imidazo[4,5-b]pyridin-3-yl)benzyl)piperidin-4-yl)amino)pyrimidine-2-carbonitrile] showed an IC50 of under 0.015 µM.
Work on `COc1ccc(-c2ccc3nc(-c4nccnc4N)n(-c4ccc(CN5CCC(Nc6ccnc(C#N)n6)CC5)cc4)c3n2)cn1` [Example 636, 4-((1-(4-(2-(3-Aminopyrazin-2-yl)-5-(6-methoxypyridin-3-yl)-3H-imidazo[4,5-b]pyridin-3-yl)benzyl)piperidin-4-yl)amino)pyrimidine-2-carbonitrile] yielded an IC50 of under 0.015 µM.
`N#Cc1nccc(N2CCN(Cc3ccc(-n4c(-c5cccnc5N)nc5ccc(-c6cnccc6C#N)nc54)cc3)CC2)n1` [Example 383, 4-(4-(4-(2-(2-Aminopyridin-3-yl)-5-(4-cyanopyridin-3-yl)-3H-imidazo[4,5-b]pyridin-3-yl)benzyl)piperazin-1-yl)pyrimidine-2-carbonitrile] was tested, and the IC50 was under 0.015 µM.
Work on `N#Cc1nccc(NC2CCN(Cc3ccc(-n4c(-c5cccnc5N)nc5ccc(-c6ncn(C(F)F)n6)nc54)cc3)CC2)n1` [Example 572, 4-((1-(4-(2-(2-Aminopyridin-3-yl)-5-(1-(difluoromethyl)-1H-1,2,4-triazol-3-yl)-3H-imidazo[4,5-b]pyridin-3-yl)benzyl)piperidin-4-yl)amino)pyrimidine-2-carbonitrile] yielded an IC50 of under 0.015 µM.
With `N#Cc1nccc(NC2CCN(Cc3ccc(-n4c(-c5cccnc5N)nc5ccc(-c6cccc(N)c6)nc54)cc3)CC2)n1` [Example 517, 4-((1-(4-(5-(3-Aminophenyl)-2-(2-aminopyridin-3-yl)-3H-imidazo[4,5-b]pyridin-3-yl)benzyl)piperidin-4-yl)amino)pyrimidine-2-carbonitrile] the IC50 was under 0.015 µM.
Work on `N#Cc1ncnc(N2CCC3(CCN(Cc4ccc(-n5c(-c6cccnc6N)nc6ccc(-c7ccccc7)nc65)cc4)CC3)C2)n1` [Example 363, 4-(8-(4-(2-(2-Aminopyridin-3-yl)-5-phenyl-3H-imidazo[4,5-b]pyridin-3-yl)benzyl)-2,8-diazaspiro[4.5]decan-2-yl)-1,3,5-triazine-2-carbonitrile] yielded an IC50 of 0.015 to 0.06 µM.

Same assay, conditions: competitive tracer displacement in living cells, read-out: AKT1 E17K IC50
With `N#Cc1ccnc(OC2CCN(Cc3ccc(-n4c(-c5cccnc5N)nc5cc(-c6ccccc6)cnc54)cc3)CC2)c1` [Example 11, 2-((1-(4-(2-(2-Aminopyridin-3-yl)-6-phenyl-3H-imidazo[4,5-b]pyridin-3-yl)benzyl)piperidin-4-yl)oxy)isonicotinonitrile] the IC50 was 0.6 to 10 µM.
`N#Cc1cccc(-c2ccc3nc(-c4cccnc4N)n(-c4ccc(CN5CCC(Nc6ccnc(C#N)n6)CC5)cc4)c3n2)c1` [Example 265, 4-((1-(4-(2-(2-Aminopyridin-3-yl)-5-(3-cyanophenyl)-3H-imidazo[4,5-b]pyridin-3-yl)benzyl)piperidin-4-yl)amino)pyrimidine-2-carbonitrile] was tested, and the IC50 was under 0.015 µM.
`N#Cc1ccnc(NC2CCN(Cc3ccc(-n4c(-c5cccnc5N)nc5ccc(-c6ccccc6)nc54)cc3)CC2)n1` [Example 90, 2-((1-(4-(2-(2-Aminopyridin-3-yl)-5-phenyl-3H-imidazo[4,5-b]pyridin-3-yl)benzyl)piperidin-4-yl)amino)pyrimidine-4-carbonitrile] showed an IC50 of under 0.015 µM.
Molecule `N#Cc1nccc(N2CCN(Cc3ccc(-n4c(-c5cccnc5N)nc5ccc(-c6ccccc6F)nc54)cc3)CC2)n1` [Example 281, 4-(4-(4-(2-(2-Aminopyridin-3-yl)-5-(2-fluorophenyl)-3H-imidazo[4,5-b]pyridin-3-yl)benzyl)piperazin-1-yl)pyrimidine-2-carbonitrile] has an IC50 of under 0.015 µM.
`N#Cc1cccc(C(=O)N2CCN(Cc3ccc(-n4c(-c5cccnc5N)nc5ccc(-c6ccccc6)nc54)cc3)CC2)n1` [Example 138, 6-(4-(4-(2-(2-Aminopyridin-3-yl)-5-phenyl-3H-imidazo[4,5-b]pyridin-3-yl)benzyl)piperazine-1-carbonyl)picolinonitrile] showed an IC50 of 0.06 to 0.6 µM.
`C[C@H]1CN(Cc2ccc(-n3c(-c4cccnc4N)nc4ccc(-c5ccccc5)nc43)cc2)CCN1c1nccc(C#N)n1` [Example 207, (S)-2-(4-(4-(2-(2-Aminopyridin-3-yl)-5-phenyl-3H-imidazo[4,5-b]pyridin-3-yl)benzyl)-2-methylpiperazin-1-yl)pyrimidine-4-carbonitrile] showed an IC50 of 0.06 to 0.6 µM.
With `N#Cc1nc2cc(C(=O)NC3CCN(Cc4ccc(-n5c(-c6cccnc6N)nc6cccnc65)cc4)CC3)ccc2s1` [Example 34, N-(1-(4-(2-(2-aminopyridin-3-yl)-3H-imidazo[4,5-b]pyridin-3-yl)benzyl)piperidin-4-yl)-2-cyanobenzo[d]thiazole-5-carboxamide] the IC50 was 0.06 to 0.6 µM.
Molecule `N#Cc1cc(C(=O)N2CCN(Cc3ccc(-n4c(-c5cccnc5N)nc5cccnc54)cc3)CC2)ncn1` [Example 114, 6-(4-(4-(2-(2-Aminopyridin-3-yl)-3H-imidazo[4,5-b]pyridin-3-yl)benzyl)piperazine-1-carbonyl)pyrimidine-4-carbonitrile] has an IC50 of 0.06 to 0.6 µM.
For `Cc1ccc2nc(-c3cccnc3N)n(-c3ccc(CN4CCC(Nc5ccnc(C#N)n5)CC4)cc3)c2n1` [Example 280, 4-((1-(4-(2-(2-Aminopyridin-3-yl)-5-methyl-3H-imidazo[4,5-b]pyridin-3-yl)benzyl)piperidin-4-yl)amino)pyrimidine-2-carbonitrile], the IC50 was under 0.015 µM.
With `N#Cc1nc2cc(F)cc(C(=O)NC3CCN(Cc4ccc(-n5c(-c6cccnc6N)nc6ccc(-c7ccccc7)nc65)cc4)CC3)c2s1` [Example 182, N-(1-(4-(2-(2-aminopyridin-3-yl)-5-phenyl-3H-imidazo[4,5-b]pyridin-3-yl)benzyl)piperidin-4-yl)-2-cyano-5-fluorobenzo[d]thiazole-7-carboxamide] the IC50 was 0.06 to 0.6 µM.
